Literature values, collected in patent US6071925A (priority 1997, dated 2000).

Legend:
mice [1] = conditions: intra-cerebroventricular
LC 132 receptor = conditions: CHO(LC 132+) cells in culture
mice [2] = conditions: intra-cerebroventricular; remark: listed apart in the source

## OFQ: seventeen amino-acid-long peptide (F-G-G-F-T-G-A-R-K-S-A-R-K-L-A-N-Q), natural ligand for the G-protein coupled receptor OFQ-R
Mice [1]
  effect on nociception: induces hyperalgesia
LC 132 receptor
  effect on adenylate cyclase: inhibits adenylate cyclase
Mice [2]
  effect on locomotive activity: slowed down locomotive activity
